Experimental data: patent US12584113B2, “Method of cell culture” (Pfizer Inc., priority 2014, dated 2026)

System: GS-CHO cells
Test: Spike-in of single purified metabolites into Medium A, growth of GS-CHO cells monitored 5 or 6 days
Assay type: cell-based, Chinese hamster
Experimental: GS-CHO cells producing a recombinant antibody were inoculated at low viable cell densities (0.1E6 cells/mL) in various conditions in 5 ml volume, 6-well plate cultures. […] The pH of the Medium A, spiked-in with any one of the nine metabolites or any combination of the nine metabolites, was adjusted to 7 before inoculating the cells (on day 0).
For indolelactate, the stock solution (500 mM) was prepared in DMSO. […] All the conditions were run in duplicates or triplicates. Growth of the cells in above described conditions was monitored for 5 or 6 days.

[1] = metabolite alone at concentrations higher than 0.5 mM or 1 mM

Compound: CCC(O)C(=O)O (stereo not shown) [2-hydroxybutyric acid]
- effect on growth of cells [1]: Modest inhibition of growth

Compound: N[C@@H](CCS)C(=O)O [Homocysteine]
- effect on growth of cells [1]: Modest inhibition of growth

Compound: O=C(O)c1c[nH]c2ccccc12 [Indolecarboxylic acid]
- effect on growth of cells (metabolite alone at concentrations of 1 mM or lower): potent negative effect on growth of cells

Compound: O=C(O)C(O)Cc1c[nH]c2ccccc12 (stereo not shown) [Indolelactate]
- effect on growth of cells (metabolite alone at concentrations of 3 mM or below, DMSO control included): little or no effect on growth of cells

Compound: O=C(O)C(O)Cc1ccc(O)cc1 (stereo not shown) [3-(4-hydroxyphenyl)lactate]
- effect on growth of cells [1]: Modest inhibition of growth

Compound: Phenyllactate [Phenyllactate (PLA)]
- effect on growth of cells (metabolite alone at 1 mM concentration): mild effect on growth of cells

Compound: O=CO [Formate]
- effect on growth of cells (metabolite alone at concentrations 2 mM and beyond): negative effect on growth
